The text below walks through data of US20240239790A1, “7-Morpholino-1,6-Naphthyridin-5-yl Derivatives and Pharmaceutical Compositions Thereof Useful as DNA-PK Inhibitor” (adMare Therapeutics Society, priority 2021, published 2024).

In one series the target is T1, DNA-PK (Homo sapiens, UniProt P78527).
T1 construct: purchased Invitrogen PR9107A
In words: DNA-PK Assay for Biochemical Enzymatic Inhibition (ADP Glo Kinase assay). As to conditions: DNA-PK enzyme. An outline of the steps: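 Human DNA-PK (25 ng) preincubated 15 min with compounds (ten three-fold dilutions) in HEPES pH 7.5, MgCl2, KCl, calf thymus DNA buffer, then substrate 434.4 μM and ATP 64.4 μM (final) for 60 min at room temperature. ADP-Glo luminescence; percent inhibition fitted by four-parameter regression for IC50.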
(In ADP-Glo the light output rises with the ADP produced.)

Series [1] is described as follows: Microsomal Stability Assay, mouse liver microsomes. The format is in vitro ADME. As to conditions: for microsomal CLint at 0.1 uM: male, CD-1, pH 7.4, mouse liver microsomes 0.1 mg/mL, 0.1 uM compound; for Microsomal Stability Mouse % rem. 60 min: mouse liver microsomes. The procedure: Samples were then mixed and centrifuged. Supernatants were used for HPLC-MS/MS analysis. […] Peak areas corresponding to the test compound were recorded.
In general terms: Liver microsomes are a subcellular fraction often used to study metabolism.

Series [2] has as its target T2, DNA-PK phosphorylation at Serine 2056 (Homo sapiens, UniProt P78527).
T2 construct: FaDu cells were purchased from ATCC; host or cells: FaDu
In words: Cellular Assay for Inhibition of DNA-PK Phosphorylation at Serine 2056 in FaDu cells (sandwich ELISA, neocarzinostatin). As to conditions: pSer2056 DNA-PK. The format is cell-based. The essentials:
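pSer2056 and total DNA-PK were measured by sandwich ELISA in BCA-normalised FaDu lysates. Cells had 1 h compound exposure (0.3% DMSO), then 2 h with 1 μg/mL final neocarzinostatin. IC50 was fitted (variable slope) to % inhibition scaled against NCS-stimulated and DMSO-only controls.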
Background: ELISA stands for enzyme-linked immunosorbent assay.

In series [3] the test system is pH2AX induction in HCT116 ATM-/- multicellular tumour spheroids. As to the kind of experiment: Prodrug Radiation Sensitization in Multicellular Tumour Spheroids, inhibition of pH2AX induction following radiation. The format is cell-based. As to conditions: Homo sapiens, HCT-116, 20 Gy. The essentials:
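Endpoint: pH2AX (ser 139) or pDNA-PK (ser 2056) in cryosections fixed 1 or 2 h after 20 Gy, comparing oxygenated outer with hypoxic inner layers. Spheroids of ~0.5 mm (HCT116, FaDu; ATM-deficient cells used) held at 20% or 5% O2, 37 °C, stirred. Prodrug range 3.5 nM–10 μM.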

In a further series the test system is FaDu cell line. In words: Prodrug Activation in Hypoxic Stirred Tumour Cell Suspensions. As to conditions: 10 μM, 4 hours.
Series [4] has as its system pDNA-PK induction in HCT116 tumour spheroids. In words: Multicellular tumour spheroid + radiation, pDNA-PK (ser2056) inhibition, immunohistochemical endpoint, HCT116. The format is cell-based. Particulars: Homo sapiens, 20 Gy, 20% O2. As for the experimental part:
Multicellular tumour spheroids determination of compound inhibition of pDNA-PK induction following radiation. Tumour spheroids were grown to approximately 0.5 mm in diameter and irradiated with 20 Gy in combination with inhibitor test compounds to determine their potency. Inhibitor concentration for 50% reduction in pDNA-PK induction (IC50) was determined via immunohistochemical staining in spheroid cryosections taken 2 hours following radiation.
Spheroid+radiation pDNA-PK. Radiation: 20 Gy. Drug: serial dilution 5 or 10 μM down to 3.5 nM (11 wells). Spheroids: 3-6 spheroids per well (300-500 μm diameter). 20% 02 and 5% CO2. 96 well plate format.
Protocol: pre-incubate 1 hours with drug, irradiate with 20 Gy, post-incubate 2 hours with drug, freeze and cryosection ×3 replicates.
Endpoint: fluorescent immunostin pDNA-PK ser2056 and image on microscope.
Analysis: determine EC50 concentration that decreases pDNA-PK induction by 50% after radiation.
Multicellular tumour spheroids determination of compound inhibition of pDNA-PK induction following radiation. Tumour spheroids were grown to approximately 0.5 mm in diameter and irradiated with 20 Gy in combination with inhibitor test compounds to determine their potency. Inhibitor concentration for 50% reduction in pDNA-PK induction (IC50) was determined via immunohistochemical staining in spheroid cryosections taken 2 hours following radiation. For cell survival endpoint 8 Gy radiation was used and 3 hours following radiation spheroids were dissociated, counted and plated for colony forming endpoint.
Spheroid+radiation pDNA-PK. Radiation: 20 Gy. Drug: serial dilution 5 or 10 μM down to 3.5 nM (11 wells). Spheroids: 3-6 spheroids per well (300-500 μm diameter). 20% 02 and 5% CO2. 96 well plate format. Endpoint: fluorescent immunostain pDNA-PK ser2056 and image on microscope. Analysis: determine EC50 concentrations that decreases pDNA-PK induction by 50% after irradiation.
Multicellular tumour spheroids were used to determine potency of test compounds in a 3D tissue environment using inhibition of pDNA-PK induction following radiation or cell survival as the endpoint. For the pDNA-PK endpoint HCT116 or FaDU tumour spheroids were grown to approximately 0.5 mm in diameter and irradiated with 20 Gy in combination with inhibitor test compounds to determine their potency. Experiments were carried out in 96 well plates containing 0.7 mls of MEM media containing 10% FBS and 10 mM glucose under 20% O2 & 5% CO2 at 37° C. Following dilution of compounds 1:1000 from DMSO stocks, compounds were serially diluted from 10 μM down to 3.5 nM and 5-10 spheroids added. 96 well plates were constantly stirred to avoid spheroids settling during the course of the experiment. The inhibitor concentration for 50% reduction in pDNA-PK induction (EC50) was determined via immunohistochemical staining in spheroid cryosections taken 2 hours following radiation using anti-pDNA-PK (ser 2056) and fixed immediately in formalin following sectioning. For cell survival endpoint 8 Gy radiation was used and, 3 hours following radiation, spheroids were dissociated, counted and plated for colony forming endpoint. Data presented in the table compound potency as EC50 [μM].

The mark [5] stands for this setting: 5% O2, inner layers, read-out: Prodrug 5% O2 Inner layers EC50.
The mark [6] stands for this setting: 5% O2, outer layers, read-out: Prodrug 5% O2 Outer layers EC50.
Setting [7] is: 20% O2, outer layers, read-out: Prodrug 20% O2 Outer layers EC50.
[8] abbreviates: neocarzinostatin 1 μg/mL, Table 1.
[9] abbreviates: HCT-116, 2 hours following radiation, Example 9 Study 2, read-out: Spheroid Cell line: HCT116 Immunohistochemical endpoint pDNA-PK inhibition EC50.
Where [10] appears, read: HCT-116, Spheroid, Cell Line: HCT115 (so in the source), 2 hours following radiation, Example 7, read-out: EC50, Immunohistochemical endpoint, pDNA-PK inhibition.

Like-named read-outs stand apart in the source and are kept apart here.

For the compound `CC1(C)CN(c2cc3ncccc3c(O[C@H]3CC[C@@H](n4ccnc4)CC3)n2)CC(C)(C)O1` [Compound 12, 4-(5-(((1s,4s)-4-(1H-imidazol-1-yl)cyclohexyl)oxy)-1,6-naphthyridin-7-yl)-2,2,6,6-tetramethylmorpholine], the IC50 on DNA-PK (Table 1) is 0.01 to 0.15 µM. For the same compound, in series [1], the microsomal CLint at 0.1 uM was more than 116 µL/min/mg and the “Microsomal Stability Mouse % rem. 60 min” value is reported as “E (% remaining = 0-25%)”.

As to `Cn1c(COc2cnc3cc(N4CCOCC4)nc(O[C@H]4CC[C@@H](Nc5ncccn5)CC4)c3c2)cnc1[N+](=O)[O-]` [LFA118, N-[4-[[3-[(3-Methyl-2-nitro-imidazol-4-yl)methoxy]-7-morpholino-1,6-naphthyridin-5-yl]oxy]cyclohexyl]pyrimidin-2-amine], the IC50 on DNA-PK (Table 2) was 0.01 to 0.15 µM; in series [2] (Table 2) it was 10 to 30 µM. Besides, the figures for the EC50 in series [3] (setting [5]), in series [3] (setting [6]) and in series [3] (setting [7]) were 0.01 to 0.5 µM, 0.5 to 1 µM and 1 to 10 µM, respectively. In the series with FaDu cell line, the “Fraction of prodrug converted to active form, Hypoxic 0.2% O2” value is given as “A (A is 0.15 to 1)”. The “Fraction of prodrug converted to active form, Oxic 5% O2” value in the series with FaDu cell line is “C (C is 0.02 to 0.05)”.

Regarding `Cc1noc(C)c1-c1cnc2cc(N3CCOCC3)nc(O[C@H]3CC[C@@H](n4ccnc4)CC3)c2c1` [Compound 157, 4-(5-(((1s,4s)-4-(1H-imidazol-1-yl)cyclohexyl)oxy)-3-(3,5-dimethylisoxazol-4-yl)-1,6-naphthyridin-7-yl)morpholine], on DNA-PK (Table 1), the half-maximal inhibitory concentration (IC50) is 0.001 to 0.01 µM. In addition, the IC50 in series [2] (setting [8]) was 1 to 10 µM. Further, in series [1], the intrinsic metabolic clearance (microsomal CLint) at 0.1 uM is more than 116 µL/min/mg and the “Microsomal Stability Mouse % rem. 60 min” value was “E (% remaining = 0-25%)”.

For `c1ccc(-c2cnc3cc(N4CCOCC4)nc(O[C@H]4CC[C@@H](n5ccnc5)CC4)c3c2)cc1` [Compound 156, 4-(5-(((1s,4s)-4-(1H-imidazol-1-yl)cyclohexyl)oxy)-3-phenyl-1,6-naphthyridin-7-yl)morpholine], the IC50 at DNA-PK (Table 1) is 0.01 to 0.15 µM. In series [1], the intrinsic metabolic clearance (microsomal CLint) at 0.1 uM is more than 116 µL/min/mg and the “Microsomal Stability Mouse % rem. 60 min” value is “E (% remaining = 0-25%)”.

Regarding `CONC(=O)COc1cnc(N[C@H]2CC[C@@H](Oc3nc(N4CCOCC4)cc4ncccc34)CC2)nc1` [Compound 72, N-Methoxy-2-((2-(((1s,4s)-4-((7-morpholino-1,6-naphthyridin-5-yl)oxy)cyclohexyl)amino)pyrimidin-5-yl)oxy)acetamide], the concentration for half-maximal inhibition (IC50) was 0.001 to 0.01 µM at DNA-PK (Table 1) and less than 0.1 µM in series [2] (setting [8]). The EC50 in series [4] (setting [9]) and in series [4] (setting [10]) was 0.5 to 1 µM throughout. Besides, the microsomal CLint at 0.1 uM in series [1] was more than 116 µL/min/mg. Besides, the “Microsomal Stability Mouse % rem. 60 min” value in series [1] is “E (% remaining = 0-25%)”.

`Cn1cc(-c2cnc3cc(N4CCOCC4)nc(O[C@H]4CC[C@@H](n5ccnc5)CC4)c3c2)cn1` [Compound 158, 4-(5-(((1s,4s)-4-(1H-imidazol-1-yl)cyclohexyl)oxy)-3-(1-methyl-1H-pyrazol-4-yl)-1,6-naphthyridin-7-yl)morpholine]: the IC50 at DNA-PK (Table 1) lay within 0.01 to 0.15 µM. The same compound had a concentration for half-maximal inhibition (IC50) in series [2] (setting [8]) of 0.1 to 1 µM. Besides, in series [1], the intrinsic clearance (microsomal CLint) at 0.1 uM was more than 116 µL/min/mg and the “Microsomal Stability Mouse % rem. 60 min” value was “E (% remaining = 0-25%)”.

In the case of `Cn1c(COc2cnc3cc(N4CCOCC4)nc(O[C@H]4CC[C@@H](NC(=O)c5ncccn5)CC4)c3c2)cnc1[N+](=O)[O-]` [LFA116, N-[4-[[3-[(3-Methyl-2-nitro-imidazol-4-yl)methoxy]-7-morpholino-1,6-naphthyridin-5-yl]oxy]cyclohexyl]pyrimidine-2-carboxamide], the values for the half-inhibitory concentration (IC50) (on DNA-PK (Table 2); in series [2] (Table 2)) were 0.01 to 0.15 µM and 10 to 30 µM, respectively. The half-maximal effective concentration (EC50) lay within 0.01 to 0.5 µM in series [3] (setting [5]), 1 to 10 µM in series [3] (setting [6]) and 1 to 10 µM in series [3] (setting [7]). Besides, in the series on FaDu cell line, the “Fraction of prodrug converted to active form, Hypoxic 0.2% O2” value is “A (A is 0.15 to 1)”. For the same compound, the “Fraction of prodrug converted to active form, Oxic 5% O2” value in the series on FaDu cell line was “C (C is 0.02 to 0.05)”.

Turning to `O=C(NS(=O)(=O)C1CC1)c1cnc2cc(N3CCOCC3)nc(O[C@H]3CC[C@@H](n4ccnc4)CC3)c2c1` [Compound 174, 5-(((1s,4s)-4-(1H-imidazol-1-yl)cyclohexyl)oxy)-N-(cyclopropylsulfonyl)-7-morpholino-1,6-naphthyridine-3-carboxamide], the IC50 lay in the range of 0.001 to 0.01 µM at DNA-PK (Table 1) and 10 to 30 µM in series [2] (setting [8]). Further, the EC50 in series [4] (HCT-116, 2 h, spheroids, Example 8, read-out: Cell line: HCT116 Immunohistochemical endpoint pDNA-PK inhibition EC50) lay in the range of 10 to 100 µM; in series [4] (setting [9]), 10 to 100 µM; in series [4] (setting [10]), 10 to 100 µM.

For the compound `CN(C)C(=O)COc1cnc(N[C@H]2CC[C@@H](Oc3nc(N4CCOCC4)cc4ncc(C(=O)O)cc34)CC2)nc1` [Compound 180, 5-(((1s,4s)-4-((5-(2-(dimethylamino)-2-oxoethoxy)pyrimidin-2-yl)amino)cyclohexyl)oxy)-7-morpholino-1,6-naphthyridine-3-carboxylic acid], the IC50 is less than 0.0005 µM at DNA-PK (Table 1) and 10 to 30 µM in series [2] (setting [8]). For the same compound, the EC50 in series [4] (setting [9]) and in series [4] (setting [10]) was 10 to 100 µM in each case.

For `NC(=O)Nc1cnc2cc(N3CCOCC3)nc(O[C@H]3CC[C@@H](Nc4ncccn4)CC3)c2c1` [Compound 196, 1-(7-morpholino-5-(((1s,4s)-4-(pyrimidin-2-ylamino)cyclohexyl)oxy)-1,6-naphthyridin-3-yl)urea], the figures for the 50% inhibitory concentration (IC50) (on DNA-PK (Table 1); in series [2] (setting [8])) were 0.001 to 0.01 µM and 0.1 to 1 µM, respectively. Also, the EC50 in series [4] (setting [9]) and in series [4] (setting [10]) was 1 to 10 µM throughout.

For the compound `CN(C)CCOc1cnc(C(=O)N[C@H]2CC[C@@H](Oc3nc(N4CCOCC4)cc4ncccc34)CC2)nc1` [Compound 126, 5-(2-(dimethylamino)ethoxy)-N-((1s,4s)-4-((7-morpholino-1,6-naphthyridin-5-yl)oxy)cyclohexyl)pyrimidine-2-carboxamide], the IC50 on DNA-PK (Table 1) was 0.001 to 0.01 µM; in series [2] (setting [8]), 1 to 10 µM. For the same compound, the EC50 in series [4] (setting [9]) and in series [4] (setting [10]) was 10 to 100 µM each time.

Usually IC50 stands for the concentration at which inhibition is half-maximal. In general, microsomal CLint refers to a measure of how fast metabolising enzymes remove a compound, apart from limits set by blood flow. Read a high microsomal CLint as faster metabolism. For orientation: EC50 means the concentration that produces a half-maximal response.
